In patent US20080274892A1, “Novel Haloalkylsulfonanilide Derivative, Herbicide, and Method of Use Thereof” (priority 2005, published 2008):

Columns and labels:
bulrush [1] = assay: Test Example 1: herbicidal efficacy on rice paddy weeds pre-emergence; format: in vivo, Scirpus juncoides; settings: 21 days
false pimpernel [2] = assay: as above; format: in vivo, Lindernia pyxidaria; settings: 21 days
bulrush [3] = assay: Test Example 2: herbicidal efficacy on rice paddy weeds post-emergence; format: in vivo, Scirpus juncoides; settings: post-emergence, one leaf stage, 21 days after treatment
false pimpernel [4] = assay: as above; format: in vivo, Lindernia pyxidaria; settings: post-emergence, one leaf stage, 21 days after treatment
[5] = system: paddy rice plant (cultivar: Nihonbare); assay: Test Example 3: phytotoxicity test for transplanted paddy rice plant; format: in vivo; settings: transplanted rice, 21 days after treatment
Procedure, shortened: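 Clay loam soil was placed in a 75 cm^2 plastic pot and flooded to a water depth of 5 cm. Two Nihonbare paddy rice plants at the two-leaf stage were transplanted 1 cm deep and grown in a hot house. After treatment, pots stayed in the hot house for 21 days, and phytotoxicity was then graded against an untreated control.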

bulrush [6] = assay: Test Example 4: low dosage test for rice paddy weeds; format: in vivo, Scirpus juncoides; settings: 300 g/ha as an active ingredient; plants treated at the one leaf stage; 21 days after treatment; vs untreated control
Source text: (§1) The standard of judgment for herbicidal efficacy (degree of growth inhibition) and phytotoxicity 4 . . . 90%-100% of herbicidal efficacy or phytotoxicity 3 . . . 70%-89% of herbicidal efficacy or phytotoxicity 2 . . . 40%-69% of herbicidal efficacy or phytotoxicity 1 . . . 1%-39% of herbicidal efficacy or phytotoxicity 0 . . . 0% of herbicidal efficacy or phytotoxicity
A 75 cm^2 plastic pot was filled with soil (clay loam) and planted seeds of bulrush which is a rice paddy weed. After covering the top with 75 cm^3 soil, the pot was filled with water so that the soil submerged under 5 cm depth of water and kept in a hot house. The test plants, at the one leaf stage, were treated with the solution of a formulation containing the compound of the present invention as an active ingredient at the predetermined effective dosage (300 g/ha as an active ingredient). The pots were kept in a hot house for 21 days after the treatment and the herbicidal efficacy was investigated and evaluated according to the standard in Test Example 1 by comparing with the untreated control. Further, as a comparative compound, the compound No. 6-28 described in the JP-A-2004-107322 was used.

[7] = system: transplanted paddy rice plant and Bulrush; assay: Test Example 5: selectivity between transplanted paddy rice plant and weeds; format: in vivo; settings: (highest dosage with no phytotoxicity to paddy rice)/(lowest dosage with effective level 4 on Bulrush); rice 3000-100 g/ha, Bulrush 300-10 g/ha; 21 days
Method: as §1
Phytotoxicity test for transplanted paddy rice plants was carried out, as in Test Example 3, by the treatment of 3000, 1000, 300 and 100 (g/ha of the active ingredient) dosage, and herbicidal test to weed post-emergence was carried out to Burlush seeded as in Test Example 2 treating at 300, 100, 30 and 10 (g/ha) dosage. The pots were kept in a hot house for 21 days after the treatment, and the phytotoxicity and the herbicidal efficacy was investigated and evaluated according to the standard in Test Example 1 by comparing with the untreated control. […] Further, as a comparative compound, the compound No. 6-28 described in the JP-A-2004-107322 was used.

barnyard glass = assay: Test Example 2: herbicidal efficacy on rice paddy weeds post-emergence; format: in vivo, Echinochloa crus-galli; settings: post-emergence, one leaf stage, 21 days after treatment
Procedure, shortened: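 Plastic pots of 75 cm^2 were filled with clay loam soil and sown with barnyard glass and bulrush seeds, then topped with 75 cm^3 soil containing false pimpernel seeds. The pots were flooded to 5 cm water depth and held in a hot house. Twenty-one days after treatment, herbicidal efficacy was graded against an untreated control.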

[8] = dosage 1000 g/ha, treated 5 days after transplantation

Compound	Bulrush pre (herbicidal efficacy grade) (bulrush [1]; dosage 1000 g/ha)	False pimpernel pre (herbicidal efficacy grade) (false pimpernel [2]; dosage 1000 g/ha)	Bulrush post (herbicidal efficacy grade) (bulrush [3]; dosage 1000 g/ha)	False pimpernel post (herbicidal efficacy grade) (false pimpernel [4]; dosage 1000 g/ha)	Phytotoxicity to paddy rice [5, 8]	Herbicide effect to Bulrush (bulrush [6])	Selective Index [7]	Bulrush pre (herbicidal efficacy grade) (bulrush [1]; dosage 300 g/ha)	False pimpernel pre (herbicidal efficacy grade) (false pimpernel [2]; dosage 300 g/ha)	Bulrush post (herbicidal efficacy grade) (bulrush [3]; dosage 300 g/ha)	False pimpernel post (herbicidal efficacy grade) (false pimpernel [4]; dosage 300 g/ha)	Phytotoxicity to paddy rice ([5]; dosage 300 g/ha)	Burnyard grass post (herbicidal efficacy grade) (barnyard glass; dosage 300 g/ha)	Burnyard grass post (herbicidal efficacy grade) (barnyard glass; dosage 1000 g/ha)
O=C1OC(C2CC2)(C2CC2)CN1Cc1ccccc1NS(=O)(=O)C(F)(F)F [1-170]	4 (90%-100% of herbicidal efficacy or phytotoxicity)	4 (90%-100% of herbicidal efficacy or phytotoxicity)	4 (90%-100% of herbicidal efficacy or phytotoxicity)	4 (90%-100% of herbicidal efficacy or phytotoxicity)	2 (40%-69% of herbicidal efficacy or phytotoxicity)	4 (90%-100% of herbicidal efficacy or phytotoxicity)	10							
COC(=O)N(c1ccccc1CN1CC(C(F)(F)F)OC1=O)S(=O)(=O)C(F)(F)F (stereo not drawn) [1-151]	4 (90%-100% of herbicidal efficacy or phytotoxicity)	4 (90%-100% of herbicidal efficacy or phytotoxicity)	4 (90%-100% of herbicidal efficacy or phytotoxicity)	4 (90%-100% of herbicidal efficacy or phytotoxicity)	1 (1%-39% of herbicidal efficacy or phytotoxicity)	3 (70%-89% of herbicidal efficacy or phytotoxicity)	3							
COCC1(C)CN(Cc2ccccc2N(C(=O)OC)S(=O)(=O)C(F)(F)F)C(=O)O1 (stereo not drawn) [1-147]						4 (90%-100% of herbicidal efficacy or phytotoxicity)	10	4 (90%-100% of herbicidal efficacy or phytotoxicity)	4 (90%-100% of herbicidal efficacy or phytotoxicity)	4 (90%-100% of herbicidal efficacy or phytotoxicity)	4 (90%-100% of herbicidal efficacy or phytotoxicity)	1 (1%-39% of herbicidal efficacy or phytotoxicity)		
CCC1(CC)CN(Cc2ccccc2N(C(=O)OC)S(=O)(=O)C(F)(F)F)C(=O)O1 [1-109]	4 (90%-100% of herbicidal efficacy or phytotoxicity)	4 (90%-100% of herbicidal efficacy or phytotoxicity)	4 (90%-100% of herbicidal efficacy or phytotoxicity)	4 (90%-100% of herbicidal efficacy or phytotoxicity)	1 (1%-39% of herbicidal efficacy or phytotoxicity)	4 (90%-100% of herbicidal efficacy or phytotoxicity)	≧30							
COC(=O)N(c1ccccc1CN1CC(C2CC2)(C2CC2)OC1=O)S(=O)(=O)C(F)(F)F [1-172]	4 (90%-100% of herbicidal efficacy or phytotoxicity)	4 (90%-100% of herbicidal efficacy or phytotoxicity)	4 (90%-100% of herbicidal efficacy or phytotoxicity)	4 (90%-100% of herbicidal efficacy or phytotoxicity)	1 (1%-39% of herbicidal efficacy or phytotoxicity)	4 (90%-100% of herbicidal efficacy or phytotoxicity)	10							
O=C1OC2(CCC2)CN1Cc1ccccc1NS(=O)(=O)C(F)(F)F [1-87]						3 (70%-89% of herbicidal efficacy or phytotoxicity)	3	4 (90%-100% of herbicidal efficacy or phytotoxicity)	4 (90%-100% of herbicidal efficacy or phytotoxicity)	4 (90%-100% of herbicidal efficacy or phytotoxicity)	4 (90%-100% of herbicidal efficacy or phytotoxicity)	1 (1%-39% of herbicidal efficacy or phytotoxicity)		
CC(C)COC(=O)N(c1ccccc1CN1CC(CNC(=O)OC(C)(C)C)OC1=O)S(=O)(=O)C(F)(F)F (racemic) [Compound 1-107]								4 (90%-100% of herbicidal efficacy or phytotoxicity)	4 (90%-100% of herbicidal efficacy or phytotoxicity)	4 (90%-100% of herbicidal efficacy or phytotoxicity)	1 (1%-39% of herbicidal efficacy or phytotoxicity)	0 (0% of herbicidal efficacy or phytotoxicity)	3 (70%-89% of herbicidal efficacy or phytotoxicity)	
CC(C)COC(=O)N(c1ccccc1CN1CC(C(F)(F)F)OC1=O)S(=O)(=O)C(F)(F)F (stereo not drawn) [Compound 1-20]								4 (90%-100% of herbicidal efficacy or phytotoxicity)	3 (70%-89% of herbicidal efficacy or phytotoxicity)	4 (90%-100% of herbicidal efficacy or phytotoxicity)	3 (70%-89% of herbicidal efficacy or phytotoxicity)	0 (0% of herbicidal efficacy or phytotoxicity)	4 (90%-100% of herbicidal efficacy or phytotoxicity)	
COC(=O)N(c1ccccc1CN1CC(C)(COc2ccccc2)OC1=O)S(=O)(=O)C(F)(F)F (stereo not drawn) [Compound 1-159]	4 (90%-100% of herbicidal efficacy or phytotoxicity)	4 (90%-100% of herbicidal efficacy or phytotoxicity)	4 (90%-100% of herbicidal efficacy or phytotoxicity)	4 (90%-100% of herbicidal efficacy or phytotoxicity)	1 (1%-39% of herbicidal efficacy or phytotoxicity)									4 (90%-100% of herbicidal efficacy or phytotoxicity)
CC1(c2ccccc2)CN(Cc2ccccc2NS(=O)(=O)C(F)(F)F)C(=O)O1 (stereo not drawn) [Compound 1-140]								4 (90%-100% of herbicidal efficacy or phytotoxicity)	4 (90%-100% of herbicidal efficacy or phytotoxicity)	4 (90%-100% of herbicidal efficacy or phytotoxicity)	4 (90%-100% of herbicidal efficacy or phytotoxicity)	1 (1%-39% of herbicidal efficacy or phytotoxicity)	2 (40%-69% of herbicidal efficacy or phytotoxicity)	
CC(=O)OCC1CN(Cc2ccccc2NS(=O)(=O)C(F)(F)F)C(=O)O1 (stereo not drawn) [Compound 1-37]								0 (0% of herbicidal efficacy or phytotoxicity)	1 (1%-39% of herbicidal efficacy or phytotoxicity)	0 (0% of herbicidal efficacy or phytotoxicity)	3 (70%-89% of herbicidal efficacy or phytotoxicity)	0 (0% of herbicidal efficacy or phytotoxicity)	0 (0% of herbicidal efficacy or phytotoxicity)	
CCCCC1COC(=O)N1Cc1ccccc1N(C(=O)OCC(C)C)S(=O)(=O)C(F)(F)F (stereo not drawn) [Compound 1-12]								4 (90%-100% of herbicidal efficacy or phytotoxicity)	2 (40%-69% of herbicidal efficacy or phytotoxicity)	4 (90%-100% of herbicidal efficacy or phytotoxicity)	2 (40%-69% of herbicidal efficacy or phytotoxicity)	0 (0% of herbicidal efficacy or phytotoxicity)	2 (40%-69% of herbicidal efficacy or phytotoxicity)	
